Test results reported in ChEMBL document CHEMBL1138480, “Discovery of highly potent and selective biphenylacylsulfonamide-based beta3-adrenergic receptor agonists and evaluation of physical properties as potential overactive bladder therapies: part 5” (J Med Chem, 2009).

Experiments:
[1] = Cmax in Beagle dog at 0.10 mg/kg, po by cassette assay; type: ADME, organism-based, Canis lupus familiaris; design: dose 0.1 mg/kg, route oral; details: in vivo, 0.1 mg/kg
Canis familiaris [2] = assay: Inhibition of carbachol-induced increase in intravesical pressure in Beagle dog OAB model at 10 ug/kg, iv for 30 mins measured for 180 mins; type: functional; details: Canis lupus familiaris
[3] = Cmax in monkey at 0.32 mg/kg, po by cassette assay; type: ADME, organism-based, Macaca mulatta; design: dose 0.32 mg/kg, route oral; details: rhesus monkey, in vivo
[4] = Metabolic stability in monkey liver microsomes assessed as intrinsic clearance after 120 mins in presence of NADPH; type: ADME, Macaca mulatta, Microsome; details: rhesus monkey
[5] = AUC (0 to 24 hrs) in rat at 0.32 mg/kg, po by cassette assay; type: ADME, organism-based; design: time < 24 hr, dose 0.32 mg/kg, route oral; details: plasma
[6] = Metabolic stability in human liver microsomes assessed as intrinsic clearance after 120 mins in presence of NADPH; type: ADME, Microsome
[7] = Terminal half life in Beagle dog plasma at 0.10 mg/kg, iv by cassette assay; type: ADME, organism-based, Canis lupus familiaris; design: dose 0.1 mg/kg, route intravenous; details: 0.1 mg/kg, read-out: beta t1/2 (converted)
[8] = Total clearance in rat at 0.32 mg/kg, iv by cassette assay; type: ADME, organism-based; design: dose 0.32 mg/kg, route intravenous; details: in vivo
[9] = Bioavailability in Beagle dog at 0.10 mg/kg, po and iv by cassette assay; type: ADME, organism-based, Canis lupus familiaris; details: in vivo, 0.1 mg/kg
[10] = Metabolic stability in rat liver microsomes assessed as intrinsic clearance after 120 mins in presence of NADPH; type: ADME, Microsome
[11] = AUC (0 to 24 hrs) in Beagle dog at 0.10 mg/kg, po by cassette assay; type: ADME, organism-based, Canis lupus familiaris; design: time < 24 hr, dose 0.1 mg/kg, route oral; details: plasma, 0.1 mg/kg
[12] = Terminal half life in rat plasma at 0.32 mg/kg, iv by cassette assay; type: ADME, organism-based; design: dose 0.32 mg/kg, route intravenous; details: read-out: beta t1/2 (converted)
[13] = Protein binding in Beagle dog serum; type: ADME, cell-free, Canis lupus familiaris; details: read-out: PPB (converted)
[14] = target: Beta-3 adrenergic receptor (Canis lupus familiaris, UniProt O02662); assay: Agonist activity at dog recombinant beta3 adrenergic receptor expressed in CHO cells assessed as cAMP accumulation by enzyme immunoassay; type: functional, cell-based; details: read-out: EC50
[15] = Inhibition of KCl-induced tonic contraction in Beagle dog detrusor muscle strips preincubated for 15 mins before KCl challenge; type: functional; details: Canis lupus familiaris, read-out: EC50
[16] = Cmax in rat at 0.32 mg/kg, po by cassette assay; type: ADME, organism-based; design: dose 0.32 mg/kg, route oral; details: in vivo
[17] = Total clearance in monkey at 0.32 mg/kg, iv by cassette assay; type: ADME, organism-based, Macaca mulatta; design: dose 0.32 mg/kg, route intravenous; details: rhesus monkey, in vivo
[18] = Bioavailability in monkey at 0.32 mg/kg, po and iv by cassette assay; type: ADME, organism-based, Macaca mulatta; details: rhesus monkey, in vivo
[19] = target: Beta-3 adrenergic receptor (Homo sapiens, UniProt P13945); assay: Agonist activity at human recombinant beta3 adrenergic receptor expressed in CHO cells assessed as cAMP accumulation by enzyme immunoassay; type: functional, cell-based; details: read-out: EC50
Canis familiaris [20] = assay: Inhibition of carbachol-induced increase in intravesical pressure in intraduodenally dosed Beagle dog OAB model for 30 mins measured for 180 mins; type: functional, organism-based; details: Canis lupus familiaris
[21] = target: Beta-1 adrenergic receptor (Homo sapiens, UniProt P08588)
Description: Agonist activity at human recombinant beta-1 adrenergic receptor expressed in CHO cells assessed as cAMP accumulation by enzyme immunoassay

[22] = target: Beta-2 adrenergic receptor (Homo sapiens, UniProt P07550)
Description: Agonist activity at human recombinant beta2 adrenergic receptor expressed in CHO cells assessed as cAMP accumulation by enzyme immunoassay

[23] = AUC (0 to 24 hrs) in monkey at 0.32 mg/kg, po by cassette assay; type: ADME, organism-based, Macaca mulatta; design: time < 24 hr, dose 0.32 mg/kg, route oral; details: rhesus monkey, plasma
[24] = Ratio of EC50 for inhibition of KCl-induced tonic contraction in anesthetized Beagle dog detrusor muscle strip to EC50 for dog recombinant beta3 adrenergic receptor expressed in CHO cells; design: species or system Canis lupus familiaris
[25] = Bioavailability in rat at 0.32 mg/kg, po and iv by cassette assay; type: ADME, organism-based; details: in vivo
[26] = Total clearance in Beagle dog at 0.10 mg/kg, iv by cassette assay; type: ADME, organism-based, Canis lupus familiaris; design: dose 0.1 mg/kg, route intravenous; details: in vivo, 0.1 mg/kg
[27] = Terminal half life in monkey plasma at 0.32 mg/kg, iv by cassette assay; type: ADME, organism-based, Macaca mulatta; design: dose 0.32 mg/kg, route intravenous; details: rhesus monkey, read-out: beta t1/2 (converted)
[28] = AUC (0 to 24 hrs) in Beagle dog at 0.10 mg/kg, po; type: ADME, organism-based, Canis lupus familiaris; design: time < 24 hr, dose 0.1 mg/kg, route oral; details: plasma, 0.1 mg/kg
[29] = Cmax in Beagle dog at 0.10 mg/kg, po; type: ADME, organism-based, Canis lupus familiaris; design: dose 0.1 mg/kg, route oral; details: in vivo, 0.1 mg/kg
[30] = Total clearance in Beagle dog at 0.10 mg/kg, iv; details: in vivo, 0.1 mg/kg
[31] = Bioavailability in Beagle dog at 0.10 mg/kg, po and iv; type: ADME, organism-based, Canis lupus familiaris; details: in vivo, 0.1 mg/kg
[32] = Terminal half life in Beagle dog at 0.10 mg/kg, po; type: ADME, organism-based, Canis lupus familiaris; design: dose 0.1 mg/kg, route oral; details: in vivo, 0.1 mg/kg, read-out: beta t1/2 (converted)
[33] = Metabolic stability in dog liver microsomes assessed as intrinsic clearance after 120 mins in presence of NADPH; type: ADME, Canis lupus familiaris, Microsome

Sequence of Beta-2 adrenergic receptor (P07550 whole entry): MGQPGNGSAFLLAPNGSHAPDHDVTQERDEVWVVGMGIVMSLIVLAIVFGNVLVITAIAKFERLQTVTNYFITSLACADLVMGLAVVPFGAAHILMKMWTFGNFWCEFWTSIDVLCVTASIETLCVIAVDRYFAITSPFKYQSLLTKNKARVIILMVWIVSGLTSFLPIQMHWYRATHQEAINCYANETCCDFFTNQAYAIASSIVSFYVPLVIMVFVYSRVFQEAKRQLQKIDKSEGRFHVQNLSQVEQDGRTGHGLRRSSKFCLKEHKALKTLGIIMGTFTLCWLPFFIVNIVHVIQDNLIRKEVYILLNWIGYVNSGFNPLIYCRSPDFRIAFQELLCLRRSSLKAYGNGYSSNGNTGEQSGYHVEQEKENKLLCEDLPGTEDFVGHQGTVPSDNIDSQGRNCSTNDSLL
Sequence of Beta-1 adrenergic receptor (P08588 whole entry): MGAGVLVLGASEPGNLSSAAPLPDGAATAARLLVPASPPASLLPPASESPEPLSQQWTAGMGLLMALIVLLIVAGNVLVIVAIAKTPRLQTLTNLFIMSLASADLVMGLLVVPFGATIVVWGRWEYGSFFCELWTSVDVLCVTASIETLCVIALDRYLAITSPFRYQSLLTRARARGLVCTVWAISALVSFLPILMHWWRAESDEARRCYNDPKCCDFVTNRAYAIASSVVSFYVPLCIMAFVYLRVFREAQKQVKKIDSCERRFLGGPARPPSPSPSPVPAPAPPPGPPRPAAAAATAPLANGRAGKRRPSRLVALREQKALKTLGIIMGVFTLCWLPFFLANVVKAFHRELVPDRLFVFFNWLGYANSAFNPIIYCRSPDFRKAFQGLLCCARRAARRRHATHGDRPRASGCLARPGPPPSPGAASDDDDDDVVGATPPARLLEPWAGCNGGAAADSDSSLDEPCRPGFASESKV
Sequence of Beta-3 adrenergic receptor (Canis lupus familiaris, UniProt O02662) (O02662 whole entry): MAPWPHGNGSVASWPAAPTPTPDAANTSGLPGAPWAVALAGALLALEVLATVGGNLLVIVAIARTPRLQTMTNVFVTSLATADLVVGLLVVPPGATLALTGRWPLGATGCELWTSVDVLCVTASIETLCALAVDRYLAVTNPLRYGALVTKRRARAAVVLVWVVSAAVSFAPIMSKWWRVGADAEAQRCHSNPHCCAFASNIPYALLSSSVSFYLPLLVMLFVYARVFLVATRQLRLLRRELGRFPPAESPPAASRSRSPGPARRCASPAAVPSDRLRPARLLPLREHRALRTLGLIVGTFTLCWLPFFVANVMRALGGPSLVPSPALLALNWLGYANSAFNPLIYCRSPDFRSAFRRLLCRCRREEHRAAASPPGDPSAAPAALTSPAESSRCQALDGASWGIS
Sequence of Beta-3 adrenergic receptor (Homo sapiens, UniProt P13945) (P13945 whole entry): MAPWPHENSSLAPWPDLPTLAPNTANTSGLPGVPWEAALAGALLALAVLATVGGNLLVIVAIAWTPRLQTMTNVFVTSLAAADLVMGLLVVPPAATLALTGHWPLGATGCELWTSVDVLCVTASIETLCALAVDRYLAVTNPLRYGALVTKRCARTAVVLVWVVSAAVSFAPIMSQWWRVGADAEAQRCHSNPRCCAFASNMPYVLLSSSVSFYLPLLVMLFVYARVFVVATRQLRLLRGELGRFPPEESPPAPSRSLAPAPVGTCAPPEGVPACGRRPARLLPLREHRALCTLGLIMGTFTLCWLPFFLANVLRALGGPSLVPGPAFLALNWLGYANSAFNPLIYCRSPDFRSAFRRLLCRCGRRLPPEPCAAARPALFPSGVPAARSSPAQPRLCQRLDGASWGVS

Structure (SMILES): CS(=O)(=O)NC(=O)c1ccc(-c2ccc(CCNC[C@H](O)c3cccnc3)cc2)cc1OC1CCCCC1.Cl.Cl
- Cmax [1]: 34.5 ng/mL
- inhibition in vivo at 0.01 mg/kg (Canis familiaris [2]): > 70%
- Cmax [3]: 35.1 ng/mL
- CLint scaled [4]: 3.4 mL/min/kg
- AUC(0-t) at 24 h [5]: 72.2 ng·h/mL
- CLint scaled [6]: 3.5 mL/min/kg
- half-life [7]: 5.5 h
- clearance [8]: 17.1 mL/min/kg
- bioavailability [9]: 81%
- CLint scaled [10]: 46.9 mL/min/kg
- AUC(0-t) at 24 h [11]: 385 ng·h/mL
- half-life [12]: 3 h
- fraction unbound [13]: 0.17
- EC50 [14]: 1.4 nM
- EC50 [15]: 62 nM
- Cmax [16]: 17 ng/mL
- clearance [17]: 7.5 mL/min/kg
- bioavailability [18]: 38%
- EC50 [19]: 0.13 nM
- EC50 (Canis familiaris [20]): 26.5 nM
- ED50 (Canis familiaris [20]): 0.0162 mg/kg
- EC50 [21]: 800 nM
- EC50 [22]: > 10000 nM
- AUC(0-t) at 24 h [23]: 272 ng·h/mL
- Ratio EC50 [24]: >50
- bioavailability [25]: 25%
- clearance [26]: 3.2 mL/min/kg
- half-life [27]: 4.7 h

Structure (SMILES): CC(C)Sc1cc(-c2ccc(CCNC[C@H](O)c3ccccc3)cc2)ccc1C(=O)NS(C)(=O)=O.Cl
- Cmax [1]: 39.8 ng/mL
- AUC(0-t) at 24 h [28]: 215 ng·h/mL
- inhibition in vivo at 0.01 mg/kg (Canis familiaris [2]): > 70%
- Cmax [3]: 15.7 ng/mL
- AUC(0-t) at 24 h [5]: 108 ng·h/mL
- Cmax [29]: 18.2 ng/mL
- half-life [7]: 4.3 h
- clearance [30]: 5.1 mL/min/kg
- clearance [8]: 19.6 mL/min/kg
- bioavailability [9]: 75%
- CLint scaled [10]: 84.3 mL/min/kg
- AUC(0-t) at 24 h [11]: 441 ng·h/mL
- half-life [12]: 2.3 h
- bioavailability [31]: 62%
- fraction unbound [13]: 0.1
- EC50 [14]: 0.68 nM
- EC50 [15]: 11.4 nM
- Cmax [16]: 9.9 ng/mL
- clearance [17]: 9.2 mL/min/kg
- bioavailability [18]: 24%
- EC50 [19]: 0.32 nM
- EC50 (Canis familiaris [20]): 8.2 nM
- ED50 (Canis familiaris [20]): 0.0145 mg/kg
- EC50 [21]: > 1000 nM
- EC50 [22]: > 10000 nM
- AUC(0-t) at 24 h [23]: 143 ng·h/mL
- bioavailability [25]: 41%
- half-life [32]: 4.8 h
- clearance [26]: 2.9 mL/min/kg
- half-life [27]: 5.8 h

Structure (SMILES): CC(C)Nc1cc(-c2ccc(CCNC[C@H](O)c3ccccc3)cc2)ccc1C(=O)NS(C)(=O)=O.Cl.Cl
- Cmax [1]: 8.6 ng/mL
- inhibition in vivo at 0.01 mg/kg (Canis familiaris [2]): > 70%
- Cmax [3]: 2.7 ng/mL
- CLint scaled [4]: 5.4 mL/min/kg
- AUC(0-t) at 24 h [5]: 60.9 ng·h/mL
- half-life [7]: 6.3 h
- clearance [8]: 16.9 mL/min/kg
- bioavailability [9]: 45%
- CLint scaled [10]: 36 mL/min/kg
- AUC(0-t) at 24 h [11]: 95.8 ng·h/mL
- half-life [12]: 4.1 h
- fraction unbound [13]: 0.1
- EC50 [14]: 1.1 nM
- EC50 [15]: 1.2 nM
- Cmax [16]: 14.9 ng/mL
- clearance [17]: 25.9 mL/min/kg
- bioavailability [18]: 10%
- EC50 [19]: 0.6 nM
- EC50 (Canis familiaris [20]): 7.1 nM
- ED50 (Canis familiaris [20]): 0.0349 mg/kg
- EC50 [21]: 260 nM
- EC50 [22]: > 10000 nM
- AUC(0-t) at 24 h [23]: 19.3 ng·h/mL
- bioavailability [25]: 20%
- CLint scaled [33]: 3.3 mL/min/kg
- clearance [26]: 7.5 mL/min/kg
- half-life [27]: 3.1 h
